From patent US20090054490A1, “METHODS FOR THE TREATMENT OF GERD WITH MGLUR5 ANTAGONISTS” (priority 2007, published 2009)

Target: T1, human mGlu5a receptor (Homo sapiens, UniProt P41594)
T1 construct: expressed in transfected cells; host or cells: EBNA cells (transient transfection); cell membrane homogenates
Assay: [3H]MPEP competition binding on membranes of EBNA cells transfected with human mGlu5a receptor
Conditions: [3H]MPEP 2 nM, 1 h at 4° C., read-out: Ki (mGluR5)
Protocol: For binding experiments, cDNA encoding human mGlu5a receptor was transiently transfected into EBNA cells using a procedure described by Schlaeger and Christensen [Cytotechnology 15:1-13 (1998)]. Cell membrane homogenates were stored at −80° C. until the day of assay where upon they were thawed and resuspended and polytronised in 15 mM Tris-HCl, 120 mM NaCl, 100 mM KCl, 25 mM CaCl2, 25 mM MgCl2 binding buffer at pH 7.4 to a final assay concentration of 20 […].
Saturation isotherms were determined by addition of twelve [^3H]MPEP concentrations (0.04-100 nM) to these membranes (in a total volume of 200 μl) for 1 h at 4° C. […] Incubations were performed for 1 h at 4° C.
At the end of the incubation, membranes were filtered onto unifilter (96-well white microplate with bonded GF/C filter preincubated 1 h in 0.1% PEI in wash buffer, Packard BioScience, Meriden, Conn.) with a Filtermate 96 harvester (Packard BioScience) and washed 3 times with cold 50 mM Tris-HCl, pH 7.4 buffer. Nonspecific binding was measured in the presence of […]. The radioactivity on the filter was counted (3 min) on a Packard Top-count microplate scintillation counter with quenching correction after addition of 45 μl of microscint 40 (Canberra Packard S.A., Zutrich, Switzerland) and shaking for 20 min.
The inhibition (antagonists) curves were fitted with a four parameter logistic equation giving IC50, and Hill coefficient using an iterative non linear curve fitting software (Xcel fit).
The Ki value is defined by the following formula: […]
L is the concentration of radioligand used in the binding experiment and the Kd value of the radioligand is empirically determined for each batch of membranes prepared.

T1 sequence (P41594 21-1180 isoform P41594-2 limits assumed): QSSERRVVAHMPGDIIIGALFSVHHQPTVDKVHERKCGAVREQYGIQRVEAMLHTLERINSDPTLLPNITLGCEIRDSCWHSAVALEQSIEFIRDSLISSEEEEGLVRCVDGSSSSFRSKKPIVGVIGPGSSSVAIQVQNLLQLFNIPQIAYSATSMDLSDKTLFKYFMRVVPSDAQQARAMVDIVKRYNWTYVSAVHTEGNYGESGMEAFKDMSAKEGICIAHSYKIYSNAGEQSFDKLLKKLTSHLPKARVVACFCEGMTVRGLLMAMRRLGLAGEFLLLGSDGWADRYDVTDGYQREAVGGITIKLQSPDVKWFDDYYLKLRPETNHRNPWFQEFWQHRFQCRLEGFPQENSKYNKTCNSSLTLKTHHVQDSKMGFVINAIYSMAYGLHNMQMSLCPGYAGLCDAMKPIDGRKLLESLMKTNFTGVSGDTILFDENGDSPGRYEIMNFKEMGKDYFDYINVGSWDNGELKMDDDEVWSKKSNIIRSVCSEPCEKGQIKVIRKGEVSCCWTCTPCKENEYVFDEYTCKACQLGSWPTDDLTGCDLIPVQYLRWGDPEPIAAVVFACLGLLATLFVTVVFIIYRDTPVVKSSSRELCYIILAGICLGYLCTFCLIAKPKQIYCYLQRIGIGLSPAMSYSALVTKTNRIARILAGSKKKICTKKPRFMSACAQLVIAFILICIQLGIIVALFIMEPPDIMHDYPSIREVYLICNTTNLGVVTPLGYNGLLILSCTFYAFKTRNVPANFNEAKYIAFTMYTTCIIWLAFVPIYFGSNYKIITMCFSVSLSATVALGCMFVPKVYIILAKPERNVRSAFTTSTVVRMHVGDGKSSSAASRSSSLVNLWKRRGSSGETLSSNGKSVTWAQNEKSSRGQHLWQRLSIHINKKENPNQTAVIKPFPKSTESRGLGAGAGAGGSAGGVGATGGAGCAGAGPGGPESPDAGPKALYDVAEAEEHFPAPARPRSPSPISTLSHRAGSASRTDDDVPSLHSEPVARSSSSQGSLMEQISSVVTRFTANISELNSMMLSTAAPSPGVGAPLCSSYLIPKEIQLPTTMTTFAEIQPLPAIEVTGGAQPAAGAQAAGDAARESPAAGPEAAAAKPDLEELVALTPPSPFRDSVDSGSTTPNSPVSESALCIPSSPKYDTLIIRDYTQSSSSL

Row | Compound | Ki
1 | Cc1cc(-n2c(C)nc(C#Cc3ccnc(Cl)c3)c2C)ccc1F [compound 6, 2-Chloro-4-[1-(4-fluoro-3-methyl-phenyl)-2,5-dimethyl-1H-imidazol-4-ylethynyl]-pyridine] | 35 nM
2 | Cc1nc(C#Cc2ccnc(Cl)c2)c(C)n1-c1cccc(OC(F)(F)F)c1 [compound 12, 2-Chloro-4-[2,5-dimethyl-1-(3-trifluoromethoxy-phenyl)-1H-imidazol-4-ylethynyl]-pyridine] | 14 nM
3 | Cc1nc(C#Cc2ccnc(Cl)c2)c(C)n1-c1ccc(Cl)nc1 [compound 16, 2-Chloro-5-[4-(2-Chloro-pyridin-4-ylethynyl)-2,5-dimethyl-1H-imidazol-1-yl]-pyridine] | 86 nM
4 | Cc1nc(C#Cc2ccnc(Cl)c2)c(C)n1-c1cnccn1 [compound 18, 2-[4-(2-Chloro-pyridin-4-ylethynyl)-2,5-dimethyl-imidazol-1-yl]-pyrazine] | 108 nM
5 | Cc1nc(C#Cc2ccnc(Cl)c2)c(C)n1-c1cccc(Cl)c1F [compound 20, 2-Chloro-4-[1-(3-chloro-2-fluoro-phenyl)-2,5-dimethyl-1H-imidazol-4-ylethynyl]-pyridine] | 28 nM
6 | Cc1nc(C#Cc2ccnc(Cl)c2)c(C)n1-c1cccc(C(F)(F)F)c1 [compound 21, 2-Chloro-4-[2,5-dimethyl-1-(3-trifluoromethyl-phenyl)-1H-imidazol-4-ylethynyl]-pyridine] | 55 nM
7 | Cc1cccc(-n2c(C)nc(C#Cc3ccnc(Cl)c3)c2C)n1 [compound 23, 2-[4-(2-Chloro-pyridin-4-ylethynyl)-2,5-dimethyl-1H-imidazol-1-yl]-6-methyl-pyridine] | 93 nM
8 | Cc1nc(C#Cc2ccnc(Cl)c2)c(C)n1-c1cccc(C(F)(F)F)n1 [compound 24, 2-[4-(2-Chloro-pyridin-4-ylethynyl)-2,5-dimethyl-1H-imidazol-1-yl]-6-(trifluoromethyl)-pyridine] | 26 nM
9 | Cc1nc(C#Cc2ccnc(Cl)c2)c(C(F)F)n1-c1ccc(F)cc1 [compound 27, 2-Chloro-4-[5-difluoromethyl-1-(4-fluoro-phenyl)-2-methyl-1H-imidazol-4-ylethynyl]-pyridine] | 42.2 nM
10 | Cc1nc(C#Cc2ccnc(Cl)c2)c(CO)n1-c1ccc(F)cc1 [compound 28, [5-(2-Chloro-pyridin-4-ylethynyl)-3-(4-fluoro-phenyl)-2-methyl-3H-imidazol-4-yl]-methanol] | 211 nM

The remaining compounds from weak to strong by Ki, led by results:

Row | Ki | Compound
11 | 79 nM | Cc1cc(C(F)(F)F)cc(-n2c(C)nc(C#Cc3ccnc(Cl)c3)c2C)n1 [compound 17, 2-[4-(2-Chloro-pyridin-4-ylethynyl)-2,5-dimethyl-imidazol-1-yl]-6-methyl-4-trifluoromethyl-pyridine]
12 | 70 nM | Cc1ccc(-n2c(C)nc(C#Cc3ccnc(Cl)c3)c2C)nc1 [compound 15, 2-[4-(2-Chloro-pyridin-4-ylethynyl)-2,5-dimethyl-1H-imidazol-1-yl]-5-methyl-pyridine]
13 | 50 nM | Cc1cc(F)ccc1-n1c(C)nc(C#Cc2ccnc(Cl)c2)c1C [compound 5, 2-Chloro-4-[1-(4-fluoro-2-methyl-phenyl)-2,5-dimethyl-1H-imidazol-4-ylethynyl]-pyridine]
14 | 44 nM | Cc1nc(C#Cc2ccnc(Cl)c2)c(C)n1-c1ccc(C(F)(F)F)cc1 [compound 13, 2-Chloro-4-[2,5-dimethyl-1-(4-trifluoromethyl-phenyl)-1H-imidazol-4-ylethynyl]-pyridine]
15 | 31 nM | Cc1nc(C#Cc2ccnc(Cl)c2)c(C)n1-c1ccc(F)c(Cl)c1 [compound 22, 2-Chloro-4-[1-(3-chloro-4-fluoro-phenyl)-2,5-dimethyl-1H-imidazol-4-ylethynyl]-pyridine]
16 | 30 nM | COc1ccc(-n2c(C)nc(C#Cc3ccnc(Cl)c3)c2C)cc1 [compound 10, 2-Chloro-4-[1-(4-methoxy-phenyl)-2,5-dimethyl-1H-imidazol-4-ylethynyl]-pyridine]
17 | 21 nM | Cc1ccc(-n2c(C)nc(C#Cc3ccnc(Cl)c3)c2C)cc1 [compound 7, 2-Chloro-4-(2,5-dimethyl-1-p-tolyl-1H-imidazol-4-ylethynyl)-pyridine]
18 | 20 nM | Cc1nc(C#Cc2ccnc(Cl)c2)c(C)n1-c1ccc(Cl)cc1 [compound 19, 2-Chloro-4-[1-(4-chloro-phenyl)-2,5-dimethyl-1H-imidazol-4-ylethynyl]-pyridine]
19 | 10 nM | Cc1ccc(-n2c(C)nc(C#Cc3ccnc(Cl)c3)c2C)cc1Cl [compound 8, 2-Chloro-4-[1-(3-chloro-4-methyl-phenyl)-2,5-dimethyl-1H-imidazol-4-ylethynyl]-pyridine]
20 | 5.9 nM | Cc1c(C#Cc2ccnc(Cl)c2)nn(C)c1-c1ccc(F)cc1 [compound 26, 2-Chloro-4-[5-(4-fluoro-phenyl)-1,4-dimethyl-1H-pyrazol-3-ylethynyl]-pyridine]
21 | 5 nM | Cc1cc(-n2c(C)nc(C#Cc3ccnc(Cl)c3)c2C)ccc1OC(F)(F)F [compound 14, 2-Chloro-4-[2,5-dimethyl-1-(3-methyl-4-trifluoromethoxy-phenyl)-1H-imidazol-4-ylethynyl]-pyridine]
